These results are taken from PubChem BioAssay AID1421 (Emory University Molecular Libraries Screening Center, 2008).

Where “and” joins values, the source holds several entries; their conditions need not be identical. Identical values can stand only once. Calls of active or inactive are those of the source. No rule for the calls is given here.

Prostaglandin E2 receptor EP2 subtype (Homo sapiens), sequence (P43116 whole entry, looked up): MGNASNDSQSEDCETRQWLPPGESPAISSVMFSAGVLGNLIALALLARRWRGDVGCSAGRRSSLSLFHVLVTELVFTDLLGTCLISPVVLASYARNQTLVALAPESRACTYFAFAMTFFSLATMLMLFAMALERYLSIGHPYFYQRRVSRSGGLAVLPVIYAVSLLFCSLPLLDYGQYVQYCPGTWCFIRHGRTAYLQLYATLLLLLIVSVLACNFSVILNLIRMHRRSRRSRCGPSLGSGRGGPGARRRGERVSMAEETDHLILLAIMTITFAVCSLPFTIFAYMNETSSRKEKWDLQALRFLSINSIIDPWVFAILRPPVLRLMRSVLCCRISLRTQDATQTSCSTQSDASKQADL

One experiment has as its target Prostaglandin E2 receptor EP2 subtype (Homo sapiens) (UniProt P43116). Nature of the experiment: compounds shifting PGE2 potency at EP2 – cell-based, human EP2, PGE2 EC50 shift, dose response (AID 1421). The note with it: EP2-expressing cells, PGE2 EC50 shift by compound.
In the case of `CCCn1c2ccccc2c2nc3ccccc3nc21`, the outcome was active.
As to `COC(=O)c1sc2nc(N3CCCCC3)c3c(c2c1N)CCCC3`, the outcome was active.
Consider `C/C(=N\O)C(=O)OC1CC(C)CCC1C(C)C` (stereo not drawn), for which the outcome was active.
With `CC(C)NC(=O)NC(=O)CSc1nnc(COc2ccccc2F)n1C(C)C1CC2CCC1C2` (stereo not drawn), the outcome was active.
`CCC(C)N(C)C(=O)c1cc2ccccc2c(-c2ccccc2Cl)n1` (stereo not drawn): the result was active.
Turning to `O=c1[nH]c2ccc(Cl)cc2c(-c2ccccc2)c1N1CCOCC1`, the outcome was active.
With `Cn1cccc1/C=C1\CC(C(C)(C)C)C/C(=C\c2cccn2C)C1=O` (stereo not drawn), the result was active.

The same experiment, now with this note: EP2-expressing cells, PGE2 EC50 shift by compound; measured here: PGE2 EC50 at 6.7 uM compound.
Take `O=C(O)c1ccc(-c2ccccc2C(F)(F)F)o1`: the PGE2 EC50 with compound was determined as 0.92 nM.
Regarding `COc1cnc(SCc2c(Cl)cccc2Cl)nc1Cl`, the PGE2 EC50 with compound worked out at 1.76 nM.
Take `CC(=O)N(c1cccc(Br)c1)C1C=CS(=O)(=O)C1` (stereo not drawn): the PGE2 EC50 with compound was determined as 0.98 nM.
For `O=C(COC(=O)c1ccccc1)Nc1ccccc1Sc1ccccc1`, the PGE2 EC50 with compound came out at 0.83 nM.
Take `S=c1[nH]nc(Cc2ccccc2)n1Cc1ccco1`: the PGE2 EC50 with compound was found to be 2.65 nM.
In the case of `C=CCn1c(CNC(=O)c2cccs2)nnc1SCC(=O)c1ccc(Br)cc1`, the PGE2 EC50 with compound was 1.83 nM.
Consider `CCOC(=O)c1c(NC(=O)CSC(=S)N(C)C)sc(C)c1C`, for which the PGE2 EC50 with compound is 0.86 nM.
The same measure, in the same setting: next, `CCN(CC)P(=O)(Nc1ccccc1Br)c1ccc(N(C)C)cc1NC(=O)c1ccco1` (stereo not drawn): 1.19 nM; `CCCCn1c(=O)c(C(=O)NCc2ccco2)c(O)c2ccccc21`: 2.62 nM; `COC(=O)c1c(-c2ccc(F)cc2)csc1NC(=O)C1CCCO1` (stereo not drawn): 2.48 nM.
The same measure, in the same setting: next, `O=c1c2cn[nH]c2nc(SCc2ccccc2F)n1-c1ccc(Br)cc1`: 0.77 nM; `Nc1[nH]n2c(=O)c3c(nc2c1N=Nc1ccccc1)CCCC3`: 2.09 nM.
Consider `Oc1ccc(/C=N/N(Cc2ccccc2)c2ccccc2)cc1`, for which the PGE2 EC50 with compound was found to be 0.76 nM.
Turning to `C/C(Cl)=C/Cn1c(SC(C)C)nc2c1c(=O)[nH]c(=O)n2C`, the PGE2 EC50 with compound amounted to 0.95 nM.
Still for that read-out and setting: next, `CCCn1c(SCC(=O)Nc2sc(C)c(C)c2C(=O)OCC)nc2c1c(=O)n(C)c(=O)n2C`: 1.35 nM.
In the case of `CCOC(=O)C1CCCN(c2c(C(=O)c3ccccc3)cnc3ccc(OC)cc23)C1` (stereo not drawn), the PGE2 EC50 with compound turned out to be 1.15 nM.
With `Cc1cccc(N=N/C(=C\O)C(=O)c2ccc(Br)cc2)c1`, the PGE2 EC50 with compound is 0.31 nM.
For `COc1ccc2cc(CN(Cc3ccco3)C(c3nnnn3C3CCCCC3)C(C)C)c(=O)[nH]c2c1` (stereo not drawn), the PGE2 EC50 with compound is 0.76 nM.
Consider `COCCn1c(SCC(=O)NCCc2ccccc2)nnc1-c1ccco1`, for which the PGE2 EC50 with compound worked out at 1.4 nM.
Take `CCOc1nc2cccc(C(=O)OC(C)OC(=O)OC3CCCCC3)c2n1Cc1ccc(-c2ccccc2-c2nn[nH]n2)cc1` (stereo not drawn): the PGE2 EC50 with compound came to 1.42 nM.
With `CCCSc1nc(N2CCOCC2)c2c(c1C#N)CCCC2`, the PGE2 EC50 with compound amounted to 1.06 nM.
As to `COc1ccccc1CNC(=O)C1(c2ccc(Cl)cc2)CC1`, the PGE2 EC50 with compound came to 0.82 nM.
For `CCOC(=O)C(CC)Sc1ncnc2c1nnn2-c1ccc(F)cc1` (stereo not drawn), the PGE2 EC50 with compound was found to be 0.33 nM.
Consider `CCCn1c2ccccc2c2nc3ccccc3nc21`, for which the PGE2 EC50 with compound worked out at 1.21 nM.
`CCOc1nc(-c2ccccc2O)nc2ccccc12`: the PGE2 EC50 with compound was 1.1 nM.
With `C=CCn1c(SCc2c(C)noc2C)nc2sc(C)c(C)c2c1=O`, the PGE2 EC50 with compound is 0.62 nM.
Still for that read-out and setting: next, `CCc1ccc2nc(-c3cccc(C)c3)nc(SCC(=O)NCC3CCCO3)c2c1` (stereo not drawn): 2.64 nM.
In the case of `CCSc1nc2ccccc2n1Cc1ccccc1F`, the PGE2 EC50 with compound amounted to 0.94 nM.
On the same count and under the same terms, next, `COc1ccc(C2=Nn3c(nnc3-c3ccccc3)SC2)cc1OC`: 2.63 nM; `C=CCSc1nc(N(CC)CC)c2sccc2n1`: 0.98 nM; `O=C(CNCC1CCCCC1)Nc1ccccc1N1CCCCC1`: 0.81 nM.
Same read-out and setting: next, `CCOc1ccccc1COC(=O)c1cccc(-n2cnnn2)c1`: 1.06 nM; `CC(=C\c1ccccc1)/C=C1/SC(=S)N(C(C(=O)O)C(C)C)C1=O` (stereo not drawn): 1.31 nM.
On the same count and under the same terms, next, `CCOC(=O)c1c(N)nn(C(=O)C(C)(C)C)c1-c1ccccc1`: 0.96 nM; `Cc1ccc(-c2csc3ncnc(N4CCc5ccccc5C4)c23)cc1`: 0.93 nM; `CCc1ccc2[nH]c(=O)c(C(c3nnnn3CC3CCCO3)N3CCCc4ccccc43)cc2c1` (stereo not drawn): 0.99 nM.
Turning to `COc1ccc(N=N/C(=C\O)C(=O)c2cccs2)cc1`, the PGE2 EC50 with compound turned out to be 1.42 nM.
Consider `CSc1nc2nccc(-c3ccc(-c4ccccc4)cc3)n2n1`, for which the PGE2 EC50 with compound came out at 0.87 nM.
For the compound `CCOC(=O)c1ccccc1NC(=O)CSc1ccccc1`, the PGE2 EC50 with compound turned out to be 1.07 nM.
On the same count and under the same terms, next, `S=c1[nH]nc(-c2ccccc2)n1/N=C/c1ccc(-c2ccccc2Cl)o1`: 2.43 nM; `COc1cc2ccccc2cc1C(=O)NC(=S)Nc1cc(C(=O)O)ccc1C`: 3.08 nM.
Consider `CSc1nnc(-c2ccc(F)cc2)o1`, for which the PGE2 EC50 with compound was found to be 1.71 nM.
Same read-out and setting: next, `Cc1cccc(Oc2sc(C(=O)c3ccccc3)c(N)c2C#N)c1`: 1.51 nM; `Cc1c(NC(=S)NC(=O)c2ccc(-c3ccc(Cl)cc3)o2)cccc1C(=O)O`: 0.25 nM.
On the same count and under the same terms, next, `O=C(c1cc2sccc2n1Cc1ccc(F)cc1)N1CCCc2ccccc21`: 1.56 nM; `Cc1ccccc1Nc1c(-c2ccccn2)nc2ccccn12`: 1.55 nM.
Take `CCOC(=O)C1=C(N)OC2=C(C(=O)CC(C)(C)C2)C1c1ccc(CC)s1` (stereo not drawn): the PGE2 EC50 with compound worked out at 0.96 nM.
For `COc1cccc(/C=N/c2oc(-c3ccccc3)cc2C#N)c1O`, the PGE2 EC50 with compound worked out at 1.17 nM.
Turning to `CCOc1ccc(-c2nnc3n2N=C(c2ccc(OC)cc2)CS3)cc1`, the PGE2 EC50 with compound was 0.5 nM.
As to `C=CCOc1ccc2c(c1)C(=NO)c1cc(OCC=C)ccc1-2`, the PGE2 EC50 with compound was found to be 0.62 nM.
On the same count and under the same terms, next, `Brc1ccccc1Cn1c(-c2cscn2)nc2ccccc21`: 0.94 nM; `Cn1c(=O)c2c(nc(CN3CCN(c4ccccc4)CC3)n2Cc2c(F)cccc2Cl)n(C)c1=O`: 1.38 nM.
For `O=C(Nc1ccccc1-c1nc2ccccc2s1)c1ccc(Br)o1`, the PGE2 EC50 with compound turned out to be 1.02 nM.
Regarding `Cc1ccc(S(=O)(=O)Nc2ccc(Cl)cc2C(=O)c2ccc(F)cc2)cc1`, the PGE2 EC50 with compound turned out to be 0.97 nM.
On to `COc1ccccc1Nc1cc(C)nc2c(C)ccc([N+](=O)[O-])c12`, for which the PGE2 EC50 with compound was 1.12 nM.
On to `CCCc1cc(=O)n2[nH]c(NCc3cccs3)nc2n1`, for which the PGE2 EC50 with compound amounted to 2.54 nM.
As to `OC1(c2ccc(Cl)cc2)CN(c2ccccc2)C2=[N+]1CCS2` (stereo not drawn), the PGE2 EC50 with compound came to 1.16 nM.
Same read-out and setting: next, `CCOC(=O)c1c(NC(=O)CSc2ncnc3[nH]ncc23)sc2c1CCC(C)C2` (stereo not drawn): 0.67 nM; `CCOP(=O)(OCC)c1nc(-c2ccc(C)cc2)oc1NCc1ccccc1`: 0.83 nM.
The same measure, in the same setting: next, `NC(=O)CSc1nnc(-c2cccc(S(=O)(=O)N3CCOCC3)c2)n1C1CCCCCC1`: 1.37 nM; `Cc1c(C(=O)Nc2cccc3cccnc23)oc2ccccc12`: 0.72 nM; `COC(=O)c1sc2nc(N3CCCCC3)c3c(c2c1N)CCCC3`: 0.85 nM.
As to `C/C(=N\O)C(=O)OC1CC(C)CCC1C(C)C` (stereo not drawn), the PGE2 EC50 with compound was determined as 0.88 nM.
On to `Cc1cc(C)c(N=C2CCCN2Cc2ccccc2)c(C#N)c1`, for which the PGE2 EC50 with compound amounted to 1.39 nM.
`C/C=C(\C)c1nnc(NC(=O)OCC)s1`: the PGE2 EC50 with compound came to 2.65 nM.
Same read-out and setting: next, `O=C1N2c3ccccc3CCc3cccc(c32)C1(O)C(F)(F)F` (stereo not drawn): 0.81 nM; `O=c1c2ccccc2c(-c2ccccc2)nn1Cc1ccccc1`: 2.8 nM.
`Cn1c(=O)c(NCCc2ccccc2)c2c3c(cccc31)C(=O)c1ccccc1-2`: the PGE2 EC50 with compound was found to be 0.31 nM.
As to `Cc1ccccc1-n1c(=O)[nH]c(=O)c2c(N)c(C(=O)c3ccc(Cl)cc3)sc21`, the PGE2 EC50 with compound was determined as 0.86 nM.
On to `COc1cc2ccccc2cc1C(=O)NC(=S)Nc1cccc(C(=O)O)c1`, for which the PGE2 EC50 with compound stood at 0.75 nM.
`Cc1noc(C)c1CSc1nc2sc3c(c2c(=O)n1C)CCCC3`: the PGE2 EC50 with compound worked out at 1.46 nM.
For the compound `Cc1ccc(Cl)cc1NC1=NC(=S)N(C(C)C)C12CCCCC2`, the PGE2 EC50 with compound amounted to 0.77 nM.
Same read-out and setting: next, `O=C(COc1ccc(Br)cc1)Nc1ccc(-c2nnc(-c3ccco3)o2)cc1`: 0.9 nM.
As to `CCCCOC(=O)Sc1nc2ccccc2o1`, the PGE2 EC50 with compound stood at 2.48 nM.
With `Cn1c(/C=C/N(Cc2ccccc2)c2ccccc2)c([N+](=O)[O-])c(=O)n(C)c1=O`, the PGE2 EC50 with compound came out at 1.21 nM.
As for `CCOC(=O)C1=C(C)N(C)C(C)=C(C(=O)OCC)C1c1ccccc1`, the PGE2 EC50 with compound came to 0.97 nM.
Turning to `CCOC(=O)c1c(-c2cccs2)csc1NC(=O)COC(=O)c1c(C)noc1C`, the PGE2 EC50 with compound came to 0.32 nM.
For `CC(C)NC(=O)NC(=O)CSc1nnc(COc2ccccc2F)n1C(C)C1CC2CCC1C2` (stereo not drawn), the PGE2 EC50 with compound is 1.06 nM.
Take `CCC(C)N(C)C(=O)c1cc2ccccc2c(-c2ccccc2Cl)n1` (stereo not drawn): the PGE2 EC50 with compound was 0.93 nM and 1.18 nM.
Turning to `Cc1cc(NC(=O)CN2CCCC(C)C2)n(-c2nc3ccccc3s2)n1` (stereo not drawn), the PGE2 EC50 with compound was found to be 0.75 nM.
As for `COc1ccc(C(=O)COC(=O)C(CCSC)NS(=O)(=O)c2ccc(Cl)cc2)cc1` (stereo not drawn), the PGE2 EC50 with compound was 2.2 nM.
Turning to `CCOC(=O)c1oc2ccccc2c1NC(=O)c1cccc(OC)c1OC`, the PGE2 EC50 with compound turned out to be 0.98 nM.
Still for that read-out and setting: next, `Cc1ccc(CSc2nc3ccccc3cc2C=O)cc1`: 0.73 nM; `COc1ccc(C(=O)Nc2cc(C)nn2-c2nc3ccccc3[nH]2)c(OC)c1`: 0.91 nM.
Regarding `O=c1[nH]c2ccc(Cl)cc2c(-c2ccccc2)c1N1CCOCC1`, the PGE2 EC50 with compound was determined as 1.13 nM.
In the case of `CC1(C)Cc2c(C#N)c(N3CCCC3)nc(-c3ccco3)c2CO1`, the PGE2 EC50 with compound is 2.33 nM.
With `OC1(c2ccc(Br)cc2)CN(c2ccccc2)C2=[N+]1CCS2` (stereo not drawn), the PGE2 EC50 with compound was determined as 1.17 nM.
Regarding `CCOC(=O)c1c(N)nn(C(=O)c2ccccc2)c1-c1ccccc1`, the PGE2 EC50 with compound turned out to be 2.88 nM.
In the case of `Cn1cccc1/C=C1\CC(C(C)(C)C)C/C(=C\c2cccn2C)C1=O` (stereo not drawn), the PGE2 EC50 with compound amounted to 1.44 nM.
Take `Cc1ccc2oc(=O)n(Cc3ccccc3OC(C)C)c2c1`: the PGE2 EC50 with compound was determined as 0.64 nM.
On to `Cc1sc2ncnc(N(C)Cc3cccs3)c2c1C`, for which the PGE2 EC50 with compound turned out to be 2.57 nM.
